Bounds are passed on as bounds.

T1 sequence (O00574 whole entry): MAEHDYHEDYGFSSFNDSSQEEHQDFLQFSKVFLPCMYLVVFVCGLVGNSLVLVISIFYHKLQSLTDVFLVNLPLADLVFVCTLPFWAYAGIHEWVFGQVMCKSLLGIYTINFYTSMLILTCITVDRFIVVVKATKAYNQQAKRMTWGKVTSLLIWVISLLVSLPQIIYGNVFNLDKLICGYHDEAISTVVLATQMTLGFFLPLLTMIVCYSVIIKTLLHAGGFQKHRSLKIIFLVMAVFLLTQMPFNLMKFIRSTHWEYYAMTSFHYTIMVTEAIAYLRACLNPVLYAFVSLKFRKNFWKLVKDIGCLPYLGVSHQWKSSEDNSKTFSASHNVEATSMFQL

This test addresses T1, human CXCR6 (Homo sapiens, UniProt O00574).
T1 construct: expressed in transfected cells
Put plainly: Radioligand Binding Assay (125I-CXCL16 displacement). To be noted: L1.2 cells stably transfected with human CXCR6 cDNA, 0.1 nM 125I-CXCL16, 4° C., three-hour incubation; read-out: Potency (IC50). In short, it runs like this: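 L1.2 cells stably expressing human CXCR6 incubated 3 h at 4 °C in HBSS/0.1% BSA with 0.1 nM 125I-CXCL16 and graded compound concentrations. Bound radioactivity collected by filtration and counted; IC50 from 3-parameter nonlinear regression.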
One may read the IC50 as the concentration at which inhibition is half-maximal. For `CCOc1cc(NC(=O)C2CCN(C(C)=O)CC2)ccc1S(=O)(=O)Nc1cccc(OC(F)(F)F)c1` [Example 1.161], the IC50 lay within 2000 to 20000 nM.

For the compound `CCOc1cc(NC(=O)c2cccnc2N)ccc1S(=O)(=O)Nc1cccc(OC(F)(F)F)c1` [Example 1.162], the IC50 was not above 200 nM.

With `CCc1cc(NC(=O)[C@@H](CO)c2ccccc2)ccc1S(=O)(=O)Nc1cccc(OC(F)(F)F)c1` [Example 1.163], the IC50 was not above 200 nM.

Regarding `CCOc1cc(NC(=O)C(O)C(C)O)ccc1S(=O)(=O)Nc1cccc(OC(F)(F)F)c1` (stereo not drawn) [Example 1.164], the IC50 lay within 750 to 2000 nM.

Turning to `CC(C)[C@H](O)C(=O)Nc1ccc(S(=O)(=O)Nc2cccc(OC(F)(F)F)c2)c(C#N)c1` [Example 1.165], the IC50 lay in the range of 200 to 750 nM.

`CCOc1cc(NC(=O)CC(C)(C)O)ccc1S(=O)(=O)Nc1cccc(OC(F)(F)F)c1` [Example 1.166]: the IC50 was 750 to 2000 nM.

As for `CCOc1cc(NC(=O)[C@@H](O)c2ccccc2)ccc1S(=O)(=O)Nc1cccc(OC(F)(F)F)c1` [Example 1.168], the IC50 was not above 200 nM.

For `CCOc1cc(NC(=O)[C@H]2CCCC[C@@H]2O)ccc1S(=O)(=O)Nc1cccc(OC(F)(F)F)c1` [Example 1.169], the IC50 is 750 to 2000 nM.

For `CCOc1cc(NC(=O)[C@@H](CO)c2ccccc2)ccc1S(=O)(=O)Nc1cccc(C(C)(C)C)c1` [Example 1.170], the IC50 was not above 200 nM.

Take `CCOc1cc(NC(=O)c2cncnc2)ccc1S(=O)(=O)Nc1cccc(OC(F)(F)F)c1` [Example 1.171]: the IC50 is not above 200 nM.

In the case of `CCOc1cc(NC(=O)C2CC=CC[C@@H]2O)ccc1S(=O)(=O)Nc1ccc(C)c(OC(F)(F)F)c1` (stereo partly drawn) [Example 1.172], the IC50 is not above 200 nM.

`CCOc1cc(NC(=O)[C@H]2CC=CC[C@H]2O)ccc1S(=O)(=O)Nc1cccc(OC(F)(F)F)c1` [Example 1.173]: the IC50 was in the range of 200 to 750 nM.

`Cc1cc(NC(=O)[C@@H](CO)C(C)C)ccc1S(=O)(=O)Nc1cccc(OC(F)(F)F)c1` [Example 1.174]: the IC50 is not above 200 nM.

With `CCOc1cc(NC(=O)[C@@H](CO)c2ccccc2)ccc1S(=O)(=O)Nc1ccc(Cl)c(Cl)c1` [Example 1.175], the IC50 lay in the range of 200 to 750 nM.

For the compound `C=C(C)CC(C(=O)O)C(=O)Nc1ccc(S(=O)(=O)Nc2cccc(OC(F)(F)F)c2)c(OCC)c1` (stereo not drawn) [Example 1.176], the IC50 is not above 200 nM.

`CCOc1cc(NC(=O)C(O)C2CCCC2)ccc1S(=O)(=O)Nc1cccc(OC(F)(F)F)c1` (stereo not drawn) [Example 1.177]: the IC50 was not above 200 nM.

`CCOc1cc(NC(=O)[C@@H](CO)c2ccccc2)ccc1S(=O)(=O)Nc1ccc(Cl)c(C(F)(F)F)c1` [Example 1.178]: the IC50 is 200 to 750 nM.

Consider `COc1cc(NC(=O)C2CC3C=CC2O3)ccc1S(=O)(=O)Nc1cccc(OC(F)(F)F)c1` (stereo not drawn) [Example 1.179], for which the IC50 was in the range of 200 to 750 nM.

Take `C=C(C)CC(CCO)C(=O)Nc1ccc(S(=O)(=O)Nc2cccc(OC(F)(F)F)c2)c(OCC)c1` (stereo not drawn) [Example 1.180]: the IC50 was not above 200 nM.

As to `CCOc1cc(NC(=O)[C@@H](CO)C(C)C)ccc1S(=O)(=O)Nc1cccc(C(C)(F)F)c1` [Example 1.181], the IC50 is not above 200 nM.

As to `CCOc1cc(NC(=O)C(O)Cc2ccccc2)ccc1S(=O)(=O)Nc1cccc(OC(F)(F)F)c1` (stereo not drawn) [Example 1.182], the IC50 is not above 200 nM.

In the case of `CCOc1cc(NC(=O)C2CCC(O)CC2)ccc1S(=O)(=O)Nc1cccc(OC(F)(F)F)c1` (stereo not drawn) [Example 1.183], the IC50 fell in the range of 200 to 750 nM.

`CCOc1cc(NC(=O)[C@@H](CO)c2ccccc2)ccc1S(=O)(=O)Nc1ccc(C)c(F)c1` [Example 1.184]: the IC50 lay in the range of 750 to 2000 nM.

On to `CCOc1cc(NC(=O)C2CCC[C@@H]2O)ccc1S(=O)(=O)Nc1cccc(OC(F)(F)F)c1` (stereo partly drawn) [Example 1.185], for which the IC50 was in the range of 200 to 750 nM.

Regarding `CCOc1cc(NC(=O)CCOC)ccc1S(=O)(=O)Nc1cccc(OC(F)(F)F)c1` [Example 1.186], the IC50 lay within 750 to 2000 nM.

For `Cn1nccc1C(=O)Nc1ccc(S(=O)(=O)Nc2cccc(C(F)(F)F)c2)c(C#N)c1` [Example 1.187], the IC50 is 2000 to 20000 nM.

For the compound `COCc1cc(NC(=O)[C@@H](O)C(C)C)ccc1S(=O)(=O)Nc1cccc(OC(F)(F)F)c1` [Example 1.188], the IC50 is not above 200 nM.

Take `COc1cc(NC(=O)CC2CCCO2)ccc1S(=O)(=O)Nc1cccc(C(F)(F)F)c1` (stereo not drawn) [Example 1.189]: the IC50 lay in the range of 2000 to 20000 nM.

On to `CCOc1cc(NC(=O)[C@@H](CO)c2ccccc2)ccc1S(=O)(=O)Nc1cccc(Cl)c1OC` [Example 1.190], for which the IC50 lay in the range of 2000 to 20000 nM.

As for `COc1cc(NC(=O)[C@@H](CO)C(C)C)ccc1S(=O)(=O)Nc1ccc(C)c(OC(F)(F)F)c1` [Example 1.191], the IC50 was not above 200 nM.

As for `CCOc1cc(NC(=O)C2CCN(C)CC2)ccc1S(=O)(=O)Nc1cccc(OC(F)(F)F)c1` [Example 1.192], the IC50 lay in the range of 2000 to 20000 nM.

On to `CCc1cc(NC(=O)c2ccccc2)ccc1S(=O)(=O)Nc1cccc(C(F)(F)F)c1` [Example 1.193], for which the IC50 lay within 200 to 750 nM.

As to `COc1cc(NC(=O)[C@@H]2C=CCN2C)ccc1S(=O)(=O)Nc1cccc(C(F)(F)F)c1` [Example 1.194], the IC50 lay in the range of 2000 to 20000 nM.

For `CCOc1cc(NC(=O)[C@@H](O)C(C)C)ccc1S(=O)(=O)Nc1ccc(C)c(F)c1` [Example 1.195], the IC50 lay in the range of 200 to 750 nM.

As to `O=C(Nc1ccc(S(=O)(=O)Nc2cccc(OC(F)(F)F)c2)c(Cl)c1)[C@@H](CO)c1ccccc1` [Example 1.196], the IC50 is not above 200 nM.

Regarding `COc1cc(NC(=O)[C@@H]2C=CCN2)ccc1S(=O)(=O)Nc1cccc(C(F)(F)F)c1` [Example 1.197], the IC50 was 750 to 2000 nM.

As to `CCOc1cc(NC(=O)C(O)C2CC2)ccc1S(=O)(=O)Nc1cccc(OC(F)(F)F)c1` (stereo not drawn) [Example 1.198], the IC50 is not above 200 nM.

Regarding `CCOc1cc(NC(=O)C(CO)C2CCOC2)ccc1S(=O)(=O)Nc1cccc(OC(F)(F)F)c1` (stereo not drawn) [Example 1.199], the IC50 was not above 200 nM.

Consider `CCOc1cc(NC(=O)c2cccnc2C)ccc1S(=O)(=O)Nc1cccc(OC(F)(F)F)c1` [Example 1.200], for which the IC50 is not above 200 nM.

Take `CCc1cc(NC(=O)[C@@H](CO)C(C)C)ccc1S(=O)(=O)Nc1cccc(OC(F)(F)F)c1` [Example 1.201]: the IC50 is not above 200 nM.

Regarding `COc1cc(NC(=O)c2ccnn2C)ccc1S(=O)(=O)Nc1cccc(Cl)c1` [Example 1.202], the IC50 lay within 2000 to 20000 nM.

On to `COc1c(S(=O)(=O)Nc2cccc(OC(F)(F)F)c2)ccc(NC(=O)c2ccnn2C)c1C` [Example 1.203], for which the IC50 was 2000 to 20000 nM.

On to `CCOc1cc(NC(=O)C(CO)c2ccc(F)cc2)ccc1S(=O)(=O)Nc1cccc(OC(F)(F)F)c1` (stereo not drawn) [Example 1.204], for which the IC50 was not above 200 nM.

For `CCOc1cc(NC(=O)[C@@H](O)C(C)C)ccc1S(=O)(=O)Nc1ccc(C)c(OC(F)(F)F)c1` [Example 1.205], the IC50 was not above 200 nM.

With `COc1cc(NC(=O)C(CO)c2ccccc2)ccc1S(=O)(=O)Nc1cccc(C(F)(F)F)c1` (stereo not drawn) [Example 1.206], the IC50 is 200 to 750 nM.

Take `CCOc1cc(NC(=O)[C@@H](O)Cc2ccccc2)ccc1S(=O)(=O)Nc1cccc(OC(F)(F)F)c1` [Example 1.207]: the IC50 is not above 200 nM.

As to `CCOc1cc(NC(=O)[C@@H](CO)c2ccccc2)ccc1S(=O)(=O)Nc1ccc(F)c(OC(F)(F)F)c1` [Example 1.208], the IC50 was not above 200 nM.

Take `CCOc1cc(NC(=O)[C@@H](O)C(C)C)ccc1S(=O)(=O)Nc1ccc(F)c(OC(F)(F)F)c1` [Example 1.209]: the 50% inhibitory concentration (IC50) is not above 200 nM.

Values taken from patent US20230339851A1, “CXCR6 SULFONAMIDE COMPOUNDS” (CHEMOCENTRYX, INC., priority 2022, published 2023).
